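Following 48 hours of exposure in 96-well plates, responses at five concentrations were used to interpolate endpoints linearly. The concentration for 50% growth inhibition is given as GI50.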 The source made the active and inactive calls. Rule as the data show it: active = GI50 up to about 1.1 µM and inactive = higher.
Columns and labels:
Assay in all cases: NCI tumour cell line growth inhibition, 48 h
[1] = system: A549
[2] = system: ACHN
[3] = system: BT-549
[4] = system: COLO 205
[5] = system: DMS-114
[6] = system: DU-145
[7] = system: HOP-62
[8] = system: K562
[9] = system: KM12
[10] = system: M14
[11] = system: MDA-MB-435
[12] = system: MDA-N
[13] = system: NCI-H226
[14] = system: NCI-H23
[15] = system: OVCAR-4
[16] = system: OVCAR-8
[17] = system: SF-539
[18] = system: SNB-75
[19] = system: SW-620
[20] = system: UACC-257

Measured: GI50

Cc1nc(N)nc(N)c1-c1ccc(Cl)c(Cl)c1 [METOPRINE]
inactive: [3] 21 µM | [4] 10.4 µM | [6] 1.72 µM | [7] 1.12 µM | [9] 3.05 µM | [13] > 33.3 µM | [15] 37.9 µM | [17] 1.21 µM | [18] 11.5 µM | [20] 3.85 µM
active: [1] 0.0325 µM | [2] 0.495 µM | [5] 0.149 µM | [8] 0.0219 µM | [10] 0.162 µM | [11] 0.356 µM | [12] 0.141 µM | [14] 0.378 µM | [16] 0.603 µM | [19] 0.144 µM

Source: ChEMBL document CHEMBL1201862, “PubChem BioAssay data set” (2004)
